How the values were obtained:
[1] = format: physicochemical
Experimental: Metronidazole (Apo-Metronidazole, Apotex Research Inc.) was prepared by grinding tablets into a powder form and water is added to make a paste. The paste was added to a suitable quantity of nystatin, which was obtained as an aqueous solution from Alimed or PMS PharmaScience (Nilstat™). […] The mouth rinse has a slightly sticky consistency that provides effective contact with the tissues.

[2] = test system: anaerobic gram-negative microorganisms; conditions: short-term systemic use, administered orally in humans; cited from earlier work

In the case of `Cc1ncc([N+](=O)[O-])n1CCO` [metronidazole], the solubility in water [1] is given as “does not dissolve in water” and the “effect on anaerobic gram-negative microorganisms and periodontal health” value [2] is given as “sustained reduction of anaerobic gram-negative microorganisms”.
